{"source": "paper PMC4835877", "about": "“HM71224, a novel Bruton’s tyrosine kinase inhibitor, suppresses B cell and monocyte activation and ameliorates arthritis in a mouse model: a potential drug for rheumatoid arthritis” (Arthritis Research & Therapy, 2016)", "key": {"[1]": {"system": "phosphorylation of Btk, PLC-γ2, Erk", "assay": "Phospho-flow cytometry of BCR-crosslinked human PBMCs", "format": "cell-based", "details": "anti-IgM F(ab')2", "experimental": "For phospho-flow, B cells were activated by crosslinking their BCRs with anti-human IgM antibodies (10 μg/mL; BD Biosciences) for 10 minutes at 37 °C. Cells were then fixed with 2 % paraformaldehyde at 37 °C for 12 minutes, permeabilized, and stained with anti-CD3-FITC (SK7; BD Biosciences), anti-CD20-PerCP-Cy5.5 (H1; BD Biosciences), anti-pBtk (Y223)-Alexa647 (N35-86; BD Biosciences), anti-pPLCγ2 (Y759)-Alexa647 (K86-689.37; BD Biosciences), anti-pSTAT1 (Y701)-Alexa647 (4a; BD Biosciences), anti-pSTAT3 (Y705)-Alexa647 (4/P-STAT3; BD Biosciences), anti-pSTAT5 (Y694)-Alexa647 (47; BD Biosciences), and anti-pERK1/2 (T202/204)-Alexa647 (20A; BD Biosciences) antibodies. The cells were then washed and analyzed on an LSR II flow cytometer (BD Biosciences). Data were analyzed using FlowJo software, version 8.8 (Treestar, Ashland, OR, USA)."}, "[2]": {"target": "BTK (Homo sapiens, UniProt Q06187)", "sequence (Q06187 whole entry)": "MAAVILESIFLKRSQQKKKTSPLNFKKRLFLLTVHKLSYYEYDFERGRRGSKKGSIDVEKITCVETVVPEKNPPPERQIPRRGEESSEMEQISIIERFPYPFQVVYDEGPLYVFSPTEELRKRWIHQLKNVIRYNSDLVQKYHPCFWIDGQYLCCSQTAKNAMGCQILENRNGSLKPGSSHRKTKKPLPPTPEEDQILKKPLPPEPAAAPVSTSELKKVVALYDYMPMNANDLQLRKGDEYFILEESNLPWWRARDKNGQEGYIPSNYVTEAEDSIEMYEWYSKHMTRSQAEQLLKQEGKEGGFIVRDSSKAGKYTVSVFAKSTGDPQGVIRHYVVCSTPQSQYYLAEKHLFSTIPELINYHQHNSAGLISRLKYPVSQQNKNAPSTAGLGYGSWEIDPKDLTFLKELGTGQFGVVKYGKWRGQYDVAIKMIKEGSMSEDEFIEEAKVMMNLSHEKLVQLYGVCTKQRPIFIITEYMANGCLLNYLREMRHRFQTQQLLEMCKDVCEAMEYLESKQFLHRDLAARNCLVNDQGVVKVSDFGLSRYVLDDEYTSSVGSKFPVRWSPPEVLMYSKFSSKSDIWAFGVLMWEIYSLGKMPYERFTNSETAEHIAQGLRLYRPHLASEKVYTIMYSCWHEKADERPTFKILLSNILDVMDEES", "assay": "Btk occupancy in Ramos cells (biotinylated probe)", "format": "cell-based", "experimental": "After treatment with HM71224, cells were lysed and then incubated for 1 h with 1 μM of biotinylated probe (HM71224 derivative). The lysed cells were loaded into streptavidin-coated wells and then incubated with an anti-Btk antibody (1:1000; clone number D3H5, Cell signaling Technology, Danvers, MA, USA) for 1 h, followed by a secondary HRP-conjugated antibody (1:10000; EMD Millipore Corporation, Billerica, MA, USA) at room temperature for 1 h. After washing, 100 μL of colorimetric solution (R&D systems, Minneapolis, MN, USA) was added, and the reaction was stopped 30 minutes later by addition of 100 μL of sulfuric acid (0.2 moles/L). The plate was read with the absorbance reader at 450 nm.\nTo measure Btk occupancy by immunoprecipitation (IP), biotinylated HM71224 probes were preincubated with cell lysates for 1 h at 4 °C. Streptavidin-coated beads were then added, and the mixture was incubated overnight at 4 °C. Immunoblotting was then performed, and band density was measured using MultiGauge V3.0 software (FUJI FILM, Tokyo, Japan). Untreated biotinylated probes were set at 100 %."}, "[3]": {"target": "T1, YES (Homo sapiens, UniProt P07947)", "T1 construct": "purchased ThermoFisher Scientific (contract research organization)", "T1 sequence (P07947 whole entry)": "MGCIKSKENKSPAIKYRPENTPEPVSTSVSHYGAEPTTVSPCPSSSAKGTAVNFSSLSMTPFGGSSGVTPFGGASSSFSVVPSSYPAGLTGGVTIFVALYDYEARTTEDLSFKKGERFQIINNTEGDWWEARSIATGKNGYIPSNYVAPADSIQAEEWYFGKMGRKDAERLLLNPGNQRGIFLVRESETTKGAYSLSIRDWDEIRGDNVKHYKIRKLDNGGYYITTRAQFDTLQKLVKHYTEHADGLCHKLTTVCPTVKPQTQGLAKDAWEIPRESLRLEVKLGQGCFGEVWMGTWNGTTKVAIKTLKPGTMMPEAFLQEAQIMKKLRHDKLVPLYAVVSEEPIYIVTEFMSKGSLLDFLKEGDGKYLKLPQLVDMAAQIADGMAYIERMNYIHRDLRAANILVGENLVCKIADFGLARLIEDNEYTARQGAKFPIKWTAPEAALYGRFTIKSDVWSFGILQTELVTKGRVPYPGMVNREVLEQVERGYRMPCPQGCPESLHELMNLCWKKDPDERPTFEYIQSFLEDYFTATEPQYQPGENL", "assay": "FRET-based Z'-Lyte kinase assay", "details": "read-out: Biochemical Inhibition, IC50", "description": "(§1) To determine the biochemical selectivity of HM71224, we tested more than 85 kinases using the fluorescence resonance energy transfer (FRET) method."}, "[4]": {"target": "T2, CSK (Homo sapiens, UniProt P41240)", "T2 construct": "purchased ThermoFisher Scientific (contract research organization)", "T2 sequence (P41240 whole entry)": "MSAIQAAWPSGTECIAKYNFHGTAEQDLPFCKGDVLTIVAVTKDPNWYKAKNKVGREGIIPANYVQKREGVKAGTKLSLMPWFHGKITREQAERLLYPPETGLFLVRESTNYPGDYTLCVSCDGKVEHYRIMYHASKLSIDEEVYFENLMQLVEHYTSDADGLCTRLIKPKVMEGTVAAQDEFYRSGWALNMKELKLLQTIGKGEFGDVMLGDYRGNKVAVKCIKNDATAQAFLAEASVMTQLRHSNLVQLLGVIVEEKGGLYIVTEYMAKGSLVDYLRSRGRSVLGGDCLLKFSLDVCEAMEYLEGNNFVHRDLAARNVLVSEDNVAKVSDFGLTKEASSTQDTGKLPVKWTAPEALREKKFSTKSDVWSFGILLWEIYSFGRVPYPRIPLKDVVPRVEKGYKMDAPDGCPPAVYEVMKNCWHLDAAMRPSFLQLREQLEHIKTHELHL", "assay": "FRET-based Z'-Lyte kinase assay", "details": "read-out: Biochemical Inhibition, IC50", "description": "as §1"}, "[5]": {"target": "T3, TEC (Homo sapiens, UniProt P42680)", "T3 construct": "purchased ThermoFisher Scientific (contract research organization)", "T3 sequence (P42680 whole entry)": "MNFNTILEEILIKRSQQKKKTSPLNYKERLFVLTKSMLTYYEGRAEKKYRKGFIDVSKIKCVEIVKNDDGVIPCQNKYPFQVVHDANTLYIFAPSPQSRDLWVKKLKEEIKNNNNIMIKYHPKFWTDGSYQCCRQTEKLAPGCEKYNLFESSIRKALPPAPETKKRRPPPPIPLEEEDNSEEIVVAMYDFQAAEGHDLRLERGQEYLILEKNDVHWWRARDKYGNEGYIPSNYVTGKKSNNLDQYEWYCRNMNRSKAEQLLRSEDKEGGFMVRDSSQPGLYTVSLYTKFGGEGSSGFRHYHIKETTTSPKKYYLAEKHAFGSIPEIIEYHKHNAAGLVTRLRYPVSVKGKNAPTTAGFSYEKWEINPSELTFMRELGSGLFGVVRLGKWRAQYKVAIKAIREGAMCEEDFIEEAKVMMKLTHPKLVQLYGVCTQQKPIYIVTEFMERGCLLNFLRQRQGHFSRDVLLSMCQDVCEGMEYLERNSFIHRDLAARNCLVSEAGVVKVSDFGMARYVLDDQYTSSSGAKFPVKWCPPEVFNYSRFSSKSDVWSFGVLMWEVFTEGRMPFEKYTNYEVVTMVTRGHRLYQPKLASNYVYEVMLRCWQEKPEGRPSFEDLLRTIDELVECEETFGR", "assay": "FRET-based Z'-Lyte kinase assay", "details": "read-out: Biochemical Inhibition, IC50", "description": "as §1"}, "[6]": {"target": "T4, LYN (Homo sapiens, UniProt P07948)", "T4 construct": "purchased ThermoFisher Scientific (contract research organization)", "T4 sequence (P07948 whole entry)": "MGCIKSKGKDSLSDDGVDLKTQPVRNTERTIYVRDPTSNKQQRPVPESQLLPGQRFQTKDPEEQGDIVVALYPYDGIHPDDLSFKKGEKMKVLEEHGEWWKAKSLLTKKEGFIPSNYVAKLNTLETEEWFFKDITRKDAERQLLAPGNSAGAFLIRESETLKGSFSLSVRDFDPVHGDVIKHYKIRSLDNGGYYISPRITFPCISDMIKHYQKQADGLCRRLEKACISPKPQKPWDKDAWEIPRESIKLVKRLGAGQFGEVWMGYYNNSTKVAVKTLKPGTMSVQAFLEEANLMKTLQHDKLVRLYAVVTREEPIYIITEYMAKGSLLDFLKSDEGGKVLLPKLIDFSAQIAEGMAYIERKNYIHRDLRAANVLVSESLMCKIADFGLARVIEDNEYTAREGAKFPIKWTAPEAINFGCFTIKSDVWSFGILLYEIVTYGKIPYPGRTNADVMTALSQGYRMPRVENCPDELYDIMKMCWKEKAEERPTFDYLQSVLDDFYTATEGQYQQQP", "assay": "FRET-based Z'-Lyte kinase assay", "details": "read-out: Biochemical Inhibition, IC50", "description": "as §1"}, "[7]": {"target": "T5, TXK (Homo sapiens, UniProt P42681)", "T5 construct": "purchased ThermoFisher Scientific (contract research organization)", "assay": "FRET-based Z'-Lyte kinase assay", "details": "read-out: Biochemical Inhibition, IC50", "description": "as §1"}, "[8]": {"target": "T6, BMX (Homo sapiens, UniProt P51813)", "T6 construct": "purchased ThermoFisher Scientific (contract research organization)", "T6 sequence (P51813 whole entry)": "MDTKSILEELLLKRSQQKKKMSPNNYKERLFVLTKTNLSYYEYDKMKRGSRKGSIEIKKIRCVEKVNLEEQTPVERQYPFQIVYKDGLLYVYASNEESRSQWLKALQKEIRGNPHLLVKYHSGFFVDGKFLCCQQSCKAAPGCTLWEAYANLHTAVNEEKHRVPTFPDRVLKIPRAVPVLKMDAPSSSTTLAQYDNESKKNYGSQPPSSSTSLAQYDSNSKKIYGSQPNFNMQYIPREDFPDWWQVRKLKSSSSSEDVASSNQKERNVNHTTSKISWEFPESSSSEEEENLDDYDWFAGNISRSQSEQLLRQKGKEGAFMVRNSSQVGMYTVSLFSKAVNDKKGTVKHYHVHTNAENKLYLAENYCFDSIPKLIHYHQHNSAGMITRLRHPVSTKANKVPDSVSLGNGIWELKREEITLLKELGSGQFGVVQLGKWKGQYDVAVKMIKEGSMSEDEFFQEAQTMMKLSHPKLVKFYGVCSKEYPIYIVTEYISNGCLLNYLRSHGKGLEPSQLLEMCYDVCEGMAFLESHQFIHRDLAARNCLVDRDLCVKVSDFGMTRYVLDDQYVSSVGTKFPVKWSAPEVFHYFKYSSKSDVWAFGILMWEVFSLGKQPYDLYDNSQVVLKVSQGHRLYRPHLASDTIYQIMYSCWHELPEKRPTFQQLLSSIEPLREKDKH", "assay": "FRET-based Z'-Lyte kinase assay", "details": "read-out: Biochemical Inhibition, IC50", "description": "as §1"}, "[9]": {"target": "T7, LCK (Homo sapiens, UniProt P06239)", "T7 construct": "purchased ThermoFisher Scientific (contract research organization)", "assay": "FRET-based Z'-Lyte kinase assay", "details": "read-out: Biochemical Inhibition, IC50", "description": "as §1"}, "[10]": {"target": "T8, ITK (Homo sapiens, UniProt Q08881)", "T8 construct": "purchased ThermoFisher Scientific (contract research organization)", "T8 sequence (Q08881 whole entry)": "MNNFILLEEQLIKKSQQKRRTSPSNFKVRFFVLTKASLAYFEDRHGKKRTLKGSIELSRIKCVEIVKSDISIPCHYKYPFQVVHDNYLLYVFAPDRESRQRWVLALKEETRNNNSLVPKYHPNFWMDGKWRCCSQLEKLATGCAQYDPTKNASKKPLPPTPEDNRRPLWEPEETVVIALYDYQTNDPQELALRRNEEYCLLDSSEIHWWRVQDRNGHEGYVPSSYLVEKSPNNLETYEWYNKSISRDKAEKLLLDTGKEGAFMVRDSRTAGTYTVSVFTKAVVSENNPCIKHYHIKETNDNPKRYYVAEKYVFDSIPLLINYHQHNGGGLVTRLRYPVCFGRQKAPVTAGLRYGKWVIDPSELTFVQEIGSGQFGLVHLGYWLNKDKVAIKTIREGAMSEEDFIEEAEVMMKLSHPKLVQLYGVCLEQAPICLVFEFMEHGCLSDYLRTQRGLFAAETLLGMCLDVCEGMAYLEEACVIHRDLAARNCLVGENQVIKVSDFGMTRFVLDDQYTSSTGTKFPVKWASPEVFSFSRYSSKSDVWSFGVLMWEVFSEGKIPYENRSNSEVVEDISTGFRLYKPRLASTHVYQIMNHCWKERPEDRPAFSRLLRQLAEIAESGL", "assay": "FRET-based Z'-Lyte kinase assay", "details": "read-out: Biochemical Inhibition, IC50", "description": "as §1"}, "[11]": {"target": "T9, BLK (Homo sapiens, UniProt P51451)", "T9 construct": "purchased ThermoFisher Scientific (contract research organization)", "T9 sequence (P51451 whole entry)": "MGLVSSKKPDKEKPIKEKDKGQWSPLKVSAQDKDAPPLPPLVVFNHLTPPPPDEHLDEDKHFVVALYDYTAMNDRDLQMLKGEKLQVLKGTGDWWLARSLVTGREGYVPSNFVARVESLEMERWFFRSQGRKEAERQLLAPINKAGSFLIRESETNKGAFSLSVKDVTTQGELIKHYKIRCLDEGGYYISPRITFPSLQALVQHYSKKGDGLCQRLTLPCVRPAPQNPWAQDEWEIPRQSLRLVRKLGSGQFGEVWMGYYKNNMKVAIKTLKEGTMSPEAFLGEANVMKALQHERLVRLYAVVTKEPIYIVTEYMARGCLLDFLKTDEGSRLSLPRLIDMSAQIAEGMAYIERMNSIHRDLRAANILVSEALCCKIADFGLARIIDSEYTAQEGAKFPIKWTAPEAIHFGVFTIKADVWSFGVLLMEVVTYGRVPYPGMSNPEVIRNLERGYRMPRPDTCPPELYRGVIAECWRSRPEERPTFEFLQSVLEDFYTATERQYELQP", "assay": "FRET-based Z'-Lyte kinase assay", "details": "read-out: Biochemical Inhibition, IC50", "description": "as §1"}, "[12]": {"system": "phosphorylation of Btk and PLCγ2 in Ramos cells", "assay": "BCR signaling in anti-IgM stimulated Ramos cells (immunoblot)", "format": "cell-based, human", "method": "Ramos cells or human B cells were pretreated with the indicated concentrations of HM71224 and then stimulated with anti-IgM F(ab’)2 (Southern Biotech, Birmingham, AL, USA) for 10 minutes on ice. Cells were then lysed in RIPA buffer (Sigma-Aldrich), and the proteins were separated by SDS-PAGE (Bio-Rad Laboratories, Hercules, CA, USA), transferred onto polyvinylidene fluoride (PVDF) membranes, and immunoblotted with anti-pBtk Y223 (catalog number 5082; Cell Signaling Technology, Danvers, MA, USA), anti-pPLCγ2 Y759 (catalog number 3874; Cell Signaling Technology), anti-pPLCγ2 Y1217 (Cell Signaling Technology), anti-pERK T202/204 (197G2; Cell Signaling Technology), anti-Btk (C82B8; Cell Signal Technology), anti-PLCγ2 (catalog number 3872; Cell Signal Technology), anti-ERK1/2 (3A7; Cell Signaling Technology), and anti-GAPDH (FL-335; Santa Cruz Biotechnology, Santa Cruz, TX, USA) antibodies.\nThe Ramos B cell lymphoma cell line was chosen to study the inhibitory effects of HM71224 on the BCR signaling cascade as it endogenously expresses Btk [14]. […] Ramos cells were incubated with 100 nM HM71224 for 1 h. After washing, the cells were stimulated with anti-IgM F(ab’)2."}}, "data": [{"smiles": "C=CC(=O)Nc1cccc(Oc2nc(Nc3ccc(N4CCN(C)CC4)cc3)nc3ccoc23)c1", "note": "[HM71224]", "values": [{"measurement": "Phosphorylation of Btk and Erk by phospho-flow", "setting": "[1]", "value": "inhibited phosphorylation of BTK, and p-Erk in a dose-dependent manner"}, {"measurement": "Btk molecules occupied", "setting": "[2]; 10 nM", "value": "approximately 90%"}, {"measurement": "Btk molecules occupied", "setting": "[2]; 100 nM", "value": "~100", "unit": "%"}, {"measurement": "IC50", "setting": "[3]", "value": 562, "unit": "nM"}, {"measurement": "IC50", "setting": "[4]", "value": "> 1000", "unit": "nM"}, {"measurement": "IC50", "setting": "[5]", "value": 4.57, "unit": "nM"}, {"measurement": "IC50", "setting": "[6]", "value": "> 1000", "unit": "nM"}, {"measurement": "IC50", "setting": "[7]", "value": 4.62, "unit": "nM"}, {"measurement": "IC50", "setting": "[8]", "value": 0.64, "unit": "nM"}, {"measurement": "IC50", "setting": "[9]", "value": "> 1000", "unit": "nM"}, {"measurement": "IC50", "setting": "[10]", "value": 103, "unit": "nM"}, {"measurement": "IC50", "setting": "[11]", "value": 13.5, "unit": "nM"}, {"measurement": "Duration of inhibition of BTK phosphorylation after washout", "setting": "[12]; 100 nM for 1 h, washed, then anti-IgM F(ab')2", "value": "at least 24 h"}, {"measurement": "Phosphorylation of Btk and PLCγ2", "setting": "[12]; anti-IgM F(ab')2", "value": "decreased markedly"}]}]}
